Results published in patent publication US8192962B2, “Processes for detecting toxic substances” (Daikin Industries, Ltd., priority 2001, dated 2012).

System: Transport facilitation protein genes
Experiment: DNA chip mRNA expression in yeast, transport facilitation protein genes (Table 5)
Assay type: cell-based, Saccharomyces cerevisiae S288C
In short: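 Values are treated/untreated fluorescence ratios from a whole-genome yeast DNA chip hybridized over 12 hours at 65° C with Cy3- or Cy5-labelled cDNA from poly(A) mRNA. Log-phase S288C yeast in YPD at 25° C had received a single toxic chemical for two hours, dosed to slow growth without killing.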

SMILES: [Cl][Hg][Cl] [(3), HgCl2]
- The level of expressed mRNA in the presence of chemical substance/The level of expressed mRNA in the absence of chemical substance (yeast gene YBL030C): 4.5
- The level of expressed mRNA in the presence of chemical substance/The level of expressed mRNA in the absence of chemical substance (yeast gene YBL099W): 3.1
- The level of expressed mRNA in the presence of chemical substance/The level of expressed mRNA in the absence of chemical substance (yeast gene YBR052C): 1.5
- The level of expressed mRNA in the presence of chemical substance/The level of expressed mRNA in the absence of chemical substance (yeast gene YBR068C): 1.9
- The level of expressed mRNA in the presence of chemical substance/The level of expressed mRNA in the absence of chemical substance (yeast gene YBR127C): 2.2
- The level of expressed mRNA in the presence of chemical substance/The level of expressed mRNA in the absence of chemical substance (yeast gene YBR132C): 2.4
- The level of expressed mRNA in the presence of chemical substance/The level of expressed mRNA in the absence of chemical substance (yeast gene YBR207W): 0.8
- The level of expressed mRNA in the presence of chemical substance/The level of expressed mRNA in the absence of chemical substance (yeast gene YBR293W): 1.0
- The level of expressed mRNA in the presence of chemical substance/The level of expressed mRNA in the absence of chemical substance (yeast gene YBR294W): 0.9
- The level of expressed mRNA in the presence of chemical substance/The level of expressed mRNA in the absence of chemical substance (yeast gene YBR295W): 3.3
- The level of expressed mRNA in the presence of chemical substance/The level of expressed mRNA in the absence of chemical substance (yeast gene YBR298C): 1.6
- The level of expressed mRNA in the presence of chemical substance/The level of expressed mRNA in the absence of chemical substance (yeast gene YCL025C): 2.5
- The level of expressed mRNA in the presence of chemical substance/The level of expressed mRNA in the absence of chemical substance (yeast gene YCL038C): 1.4
- The level of expressed mRNA in the presence of chemical substance/The level of expressed mRNA in the absence of chemical substance (yeast gene YCR024C-A): 3.2
- The level of expressed mRNA in the presence of chemical substance/The level of expressed mRNA in the absence of chemical substance (yeast gene YCR037C): 0.8
- The level of expressed mRNA in the presence of chemical substance/The level of expressed mRNA in the absence of chemical substance (yeast gene YCR098C): 1.7
- The level of expressed mRNA in the presence of chemical substance/The level of expressed mRNA in the absence of chemical substance (yeast gene YDL128W): 2.1
- The level of expressed mRNA in the presence of chemical substance/The level of expressed mRNA in the absence of chemical substance (yeast gene YDL198C): 2.1
- The level of expressed mRNA in the presence of chemical substance/The level of expressed mRNA in the absence of chemical substance (yeast gene YDL210W): 2.7
- The level of expressed mRNA in the presence of chemical substance/The level of expressed mRNA in the absence of chemical substance (yeast gene YDL245C): 1.6
- The level of expressed mRNA in the presence of chemical substance/The level of expressed mRNA in the absence of chemical substance (yeast gene YDR038C): 3.1
- The level of expressed mRNA in the presence of chemical substance/The level of expressed mRNA in the absence of chemical substance (yeast gene YDR039C): 3.2
- The level of expressed mRNA in the presence of chemical substance/The level of expressed mRNA in the absence of chemical substance (yeast gene YDR086C): 1.2
- The level of expressed mRNA in the presence of chemical substance/The level of expressed mRNA in the absence of chemical substance (yeast gene YDR270W): 1.4
- The level of expressed mRNA in the presence of chemical substance/The level of expressed mRNA in the absence of chemical substance (yeast gene YDR298C): 2.6
- The level of expressed mRNA in the presence of chemical substance/The level of expressed mRNA in the absence of chemical substance (yeast gene YDR342C): 12.2
- The level of expressed mRNA in the presence of chemical substance/The level of expressed mRNA in the absence of chemical substance (yeast gene YDR343C): 20.6
- The level of expressed mRNA in the presence of chemical substance/The level of expressed mRNA in the absence of chemical substance (yeast gene YDR345C): 5.6
- The level of expressed mRNA in the presence of chemical substance/The level of expressed mRNA in the absence of chemical substance (yeast gene YDR387C): 1.2
- The level of expressed mRNA in the presence of chemical substance/The level of expressed mRNA in the absence of chemical substance (yeast gene YDR497C): 0.6
- The level of expressed mRNA in the presence of chemical substance/The level of expressed mRNA in the absence of chemical substance (yeast gene YEL027W): 3.4
- The level of expressed mRNA in the presence of chemical substance/The level of expressed mRNA in the absence of chemical substance (yeast gene YEL063C): 2.4
- The level of expressed mRNA in the presence of chemical substance/The level of expressed mRNA in the absence of chemical substance (yeast gene YEL065W): 1.2
- The level of expressed mRNA in the presence of chemical substance/The level of expressed mRNA in the absence of chemical substance (yeast gene YER053C): 1.9
- The level of expressed mRNA in the presence of chemical substance/The level of expressed mRNA in the absence of chemical substance (yeast gene YFL011W): 3.7
- The level of expressed mRNA in the presence of chemical substance/The level of expressed mRNA in the absence of chemical substance (yeast gene YFL041W): 1.4
- The level of expressed mRNA in the presence of chemical substance/The level of expressed mRNA in the absence of chemical substance (yeast gene YFL050C): 1.1
- The level of expressed mRNA in the presence of chemical substance/The level of expressed mRNA in the absence of chemical substance (yeast gene YFL054C): 1.4
- The level of expressed mRNA in the presence of chemical substance/The level of expressed mRNA in the absence of chemical substance (yeast gene YGL006W): 1.3
- The level of expressed mRNA in the presence of chemical substance/The level of expressed mRNA in the absence of chemical substance (yeast gene YGL008C): 3.1
- The level of expressed mRNA in the presence of chemical substance/The level of expressed mRNA in the absence of chemical substance (yeast gene YGL104C): 2.1
- The level of expressed mRNA in the presence of chemical substance/The level of expressed mRNA in the absence of chemical substance (yeast gene YGL167C): 1.6
- The level of expressed mRNA in the presence of chemical substance/The level of expressed mRNA in the absence of chemical substance (yeast gene YGL255W): 0.9
- The level of expressed mRNA in the presence of chemical substance/The level of expressed mRNA in the absence of chemical substance (yeast gene YGR055W): 12.0
- The level of expressed mRNA in the presence of chemical substance/The level of expressed mRNA in the absence of chemical substance (yeast gene YGR065C): 2.6
- The level of expressed mRNA in the presence of chemical substance/The level of expressed mRNA in the absence of chemical substance (yeast gene YGR082W): 2.2
- The level of expressed mRNA in the presence of chemical substance/The level of expressed mRNA in the absence of chemical substance (yeast gene YGR096W): 1.1
- The level of expressed mRNA in the presence of chemical substance/The level of expressed mRNA in the absence of chemical substance (yeast gene YGR138C): 1.0
- The level of expressed mRNA in the presence of chemical substance/The level of expressed mRNA in the absence of chemical substance (yeast gene YGR191W): 1.6
- The level of expressed mRNA in the presence of chemical substance/The level of expressed mRNA in the absence of chemical substance (yeast gene YGR197C): 2.5
